Biological target: T1, glucocorticoid receptor (Homo sapiens, UniProt P04150)
T1 construct: expressed in transfected cells
T1 sequence (P04150 524-758 limits assumed): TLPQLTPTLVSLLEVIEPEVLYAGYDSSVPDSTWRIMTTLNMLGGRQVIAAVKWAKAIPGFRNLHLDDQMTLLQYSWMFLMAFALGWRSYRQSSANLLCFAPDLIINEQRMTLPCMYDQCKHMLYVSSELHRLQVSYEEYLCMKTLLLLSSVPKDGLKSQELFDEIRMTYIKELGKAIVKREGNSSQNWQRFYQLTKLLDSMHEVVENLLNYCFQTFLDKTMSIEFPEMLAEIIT
Experiment: Agonistic mode of action on the glucocorticoid receptor (CHO-Gal4/GR luciferase reporter cell line)
Type: cell-based
Conditions: range class observed in the agonistic assay or the antagonistic assay (CHO-Gal4/GR reporter cells); table does not say which mode applies per example
Method in brief: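 Agonism measured as dose-dependent luciferase luminescence (FLIPR Tetra) from a GAL4-UAS reporter driven by GAL4 DBD fused to GR ligand-binding domain in stable CHO cells. Eight half-log doses, 10 μM to 0.003 μM final in 0.5% DMSO, quadruplicate, on cells seeded 24 h earlier at 5000/well; EC50 derived.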

SMILES	IC50 or EC50 (agonist or antagonist mode not specified) [nM]
Cc1nnc2n1-c1c(cc(F)c(-c3cccc4c3cc(C(F)(F)F)n4C3CC3)c1F)NC2(C)C [Example 312, 8-[1-Cyclopropyl-2-(trifluoromethyl)-1H-indol-4-yl]-7,9-difluoro-1,4,4-trimethyl-5H-[1,2,4]triazolo[4,3-a]quinoxaline]	100 to 1000
COCCn1ccc2c(-c3c(F)cc4c(c3OC)-n3c(C)nnc3C(C)(C)N4)cc(F)cc21 [Example 351, 7-Fluoro-8-[6-fluoro-1-(2-methoxy-ethyl)-1H-indol-4-yl]-9-methoxy-1,4,4-trimethyl-5H-[1,2,4]triazolo [4,3-a]quinoxaline]	< 100
Cc1c[nH]c2c(-c3c(F)cc4c(c3F)-n3c(Cc5ccccc5)nnc3C(C)(C)N4)cccc12 [Example 68, 1-Benzyl-7,9-difluoro-4,4-dimethyl-8-(3-methyl-1H-indol-7-yl)-5H-[1,2,4]triazolo[4,3-a]quinoxaline]	100 to 1000
Cc1c(-c2cc(F)cc3c(C)c[nH]c23)c(Cl)cc2c1-n1c(C)nnc1C(C)(C)N2 [Example 363, 7-Chloro-8-(5-fluoro-3-methyl-1H-indol-7-yl)-1,4,4,9-tetramethyl-5H-[1,2,4]triazolo[4,3-a]quinoxaline]	< 100
CC#CCc1nnc2n1-c1c(cc(F)c(-c3cc(F)cc4c(C)c[nH]c34)c1F)NC2(C)C [Example 69, 1-(but-2-yn-1-yl)-7,9-difluoro-8-(5-fluoro-3-methyl-1H-indol-7-yl)-4,4-dimethyl-4,5-dihydro-[1,2,4]triazolo[4,3-a]quinoxaline]	< 100
Cc1c[nH]c2c(-c3c(F)cc4c(c3Cl)-n3c(C)nnc3C(C)(C)N4)cc(F)cc12 [Example 30]	< 100
CCc1c(-c2cc(F)cc3c2cnn3CCO)c(F)cc2c1-n1c(C)nnc1C(C)(C)N2 [Example 45, 2-[4-(9-Ethyl-7-fluoro-1,4,4-trimethyl-5H-[1,2,4]triazolo[4,3-a]quinoxalin-8-yl)-6-fluoro-1H-indazol-1-yl]-ethanol]	100 to 1000
Cc1nnc2n1-c1c(cc(F)c(-c3cccc4[nH]ncc34)c1F)NC2(C)C [Example 232, 7,9-Difluoro-8-(1H-indazol-4-yl)-1,4,4-trimethyl-5H-[1,2,4]triazolo[4,3-a]quinoxaline]	100 to 1000
Cc1nnc2n1-c1c(cc(F)c(-c3cc(F)cc4c3ccn4S(C)(=O)=O)c1F)NC2(C)C [Example 3, 7,9-difluoro-8-(6-fluoro-1-(methylsulfonyl)-1H-indol-4-yl)-1,4,4-trimethyl-4,5-dihydro-[1,2,4]triazolo[4,3-a]quinoxaline]	< 100
Cc1nnc2n1-c1c(cc(F)c(-c3cccc4c3cnn4C(=O)OC(C)(C)C)c1F)NC2(C)C [Example 238, 4-(7,9-Difluoro-1,4,4-trimethyl-5H-[1,2,4]triazolo[4,3-a]quinoxalin-8-yl)-1H-indazole-1-carboxylic acid tert-butyl ester]	100 to 1000
Cc1cc2c(c(C)c1-c1cccc3c(C)c[nH]c13)-n1c(C)nnc1C(C)(C)N2 [Example 356, 1,4,4,7,9-Pentamethyl-8-(3-methyl-1H-indol-7-yl)-5H-[1,2,4]triazolo[4,3-a]quinoxaline]	< 100
Cc1cc2c(c(F)c1-c1cc(F)cc3c(C)c[nH]c13)-n1c(C)nnc1C(C)(C)N2 [Example 364, 9-Fluoro-8-(5-fluoro-3-methyl-1H-indol-7-yl)-1,4,4,7-tetramethyl-5H-[1,2,4]triazolo[4,3-a]quinoxaline]	100 to 1000
Cc1nnc2n1-c1c(cc(F)c(-c3cccc4c3ccn4CC3CC3)c1F)NC2(C)C [Example 202, 8-[1-(Cyclopropyl-methyl)-1H-indol-4-yl]-7,9-difluoro-1,4,4-trimethyl-5H-[1,2,4]triazolo[4,3-a]quinoxaline]	< 100
Cc1cc2c(c(C)c1-c1cc(F)cc3c(C)c[nH]c13)-n1c(C)nnc1C(C)(C)N2 [Example 341, 8-(5-Fluoro-3-methyl-1H-indol-7-yl)-1,4,4,7,9-pentamethyl-5H-[1,2,4]triazolo[4,3-a]quinoxaline]	100 to 1000
CCc1nnc2n1-c1c(cc(F)c(-c3cc(F)cc4c3cnn4S(C)(=O)=O)c1C)NC2(C)C [Example 348, 1-Ethyl-7-fluoro-8-(6-fluoro-1-methylsulfonyl-1H-indazol-4-yl)-4,4,9-trimethyl-5H-[1,2,4]triazolo [4,3-a]quinoxaline]	1000 to 15000
Cc1c(-c2cccc3c(C)c[nH]c23)c(OC(F)F)cc2c1-n1c(C)nnc1C(C)(C)N2 [Example 360, 7-(Difluoro-methoxy)-1,4,4,9-tetramethyl-8-(3-methyl-1H-indol-7-yl)-5H-[1,2,4]triazolo[4,3-a]quinoxaline]	100 to 1000
Cc1c(-c2cc(F)cc3c2ccn3S(C)(=O)=O)c(Cl)cc2c1-n1c(C)nnc1C(C)(C)N2 [Example 333, 7-Chloro-8-(6-fluoro-1-methylsulfonyl-1H-indol-4-yl)-1,4,4,9-tetramethyl-5H-[1,2,4] triazolo[4,3-a]quinoxaline]	< 100
CCS(=O)(=O)n1ccc2c(-c3c(F)cc4c(c3OC)-n3c(C)nnc3C(C)(C)N4)cc(F)cc21 [Example 362, 8-[1-(Ethylsulfonyl)-6-fluoro-1H-indol-4-yl]-7-fluoro-9-methoxy-1,4,4-trimethyl-5H-[1,2,4]triazolo[4,3-a]quinoxaline]	< 100

Next, values leading:

IC50 or EC50 (agonist or antagonist mode not specified) [nM]	SMILES
< 100	COc1cc2c(c(C(F)(F)F)c1-c1cc(F)cc3c(C)c[nH]c13)-n1c(C)nnc1C(C)(C)N2 [Example 459, 8-(5-Fluoro-3-methyl-1H-indol-7-yl)-7-methoxy-1,4,4-trimethyl-9-(trifluoromethyl)-5H-[1,2,4]triazolo[4,3-a]quinoxaline]
100 to 1000	Cc1nnc2n1-c1c(ccc(-c3cc(F)cc4c3ccn4S(C)(=O)=O)c1C(F)F)NC2(C)C [Example 526, 9-(Difluoro-methyl)-8-(6-fluoro-1-methylsulfonyl-1H-indol-4-yl)-1,4,4-trimethyl-5H-[1,2,4] triazolo[4,3-a]quinoxaline]
< 100	Cc1nnc2n1-c1c(cc(F)c(-c3cccc4[nH]ccc34)c1F)NC2(C)C [Example 445, 7,9-Difluoro-8-(1H-indol-4-yl)-1,4,4-trimethyl-5H-[1,2,4] triazolo[4,3-a]quinoxaline]
100 to 1000	Cc1nnc2n1-c1c(cc(F)c(-c3ccc(F)c4[nH]ccc34)c1C(F)(F)F)NC2(C)C [Example 505, 7-Fluoro-8-(7-fluoro-1H-indol-4-yl)-1,4,4-trimethyl-9-(trifluoromethyl)-5H-[1,2,4]triazolo[4,3-a]quinoxaline]
< 100	Cc1c(-c2cc(F)cc3c2ccn3C)c(F)cc2c1-n1c(C)nnc1C(C)(C)N2 [Example 518, 7-Fluoro-8-(6-fluoro-1-methyl-1H-indol-4-yl)-1,4,4,9-tetramethyl-5H-[1,2,4]triazolo[4,3-a]quinoxaline]
100 to 1000	Cc1nnc2n1-c1c(cc(F)c(-c3ccc(F)c4[nH]ncc34)c1F)NC2(C)C [Example 501, 7,9-Difluoro-8-(7-fluoro-1H-indazol-4-yl)-1,4,4-trimethyl-5H-[1,2,4]triazolo[4,3-a]quinoxaline]
100 to 1000	COc1cc2c(c(C(F)(F)F)c1-c1cccc3c1ccn3C1CC1)-n1c(C)nnc1C(C)(C)N2 [Example 523, 8-(1-Cyclopropyl-1H-indol-4-yl)-7-methoxy-1,4,4-trimethyl-9-(trifluoromethyl)-5H-[1,2,4]triazolo[4,3-a]quinoxaline]
1000 to 15000	Cc1nnc2n1-c1c(cc(OC(F)F)c(-c3cccc4c3ccn4CC(F)F)c1F)NC2(C)C [Example 393, 8-[1-(2,2-Difluoro-ethyl)-1H-indol-4-yl]-7-(difluoro-methoxy)-9-fluoro-1,4,4-trimethyl-5H-[1,2,4]triazolo [4,3-a]quinoxaline]
100 to 1000	Cc1nnc2n1-c1c(cc(F)c(-c3cc(C#N)cc4[nH]ccc34)c1C(F)(F)F)NC2(C)C [Example 479, 4-[7-Fluoro-1,4,4-trimethyl-9-(trifluoromethyl)-5H-[1,2,4]triazolo[4,3-a]quinoxalin-8-yl]-1H-indole-6-carbonitrile]
1000 to 15000	COc1c(-c2cc(F)cc3c2ccn3CCO)c(F)cc2c1-n1c(C)nnc1C(C)(C)N2 [Example 380, 2-[6-Fluoro-4-(7-fluoro-9-methoxy-1,4,4-trimethyl-5H-[1,2,4]triazolo [4,3-a]quinoxalin-8-yl)-1H-indol-1-yl]-ethanol]
100 to 1000	Cc1c(-c2cccc3[nH]ncc23)c(F)cc2c1-n1c(C)nnc1C(C)(C)N2 [Example 510, 7-Fluoro-8-(1H-indaxol-4-yl)-1,4,4,9-tetramethyl-5H-[1,2,4] triazolo[4,3-a]quinoxaline]
100 to 1000	COc1c(-c2cccc3c2ccn3C)c(F)cc2c1-n1c(C)nnc1C(C)(C)N2 [Example 487, 7-Fluoro-9-methoxy-1,4,4-trimethyl-8-(1-methyl-1H-indol-4-yl)-5H-[1,2,4]triazolo[4,3-a] quinoxaline]

— patent US12110293B2, “Substituted triazolo quinoxaline derivatives” (GRÜNENTHAL GMBH, priority 2018, dated 2024)
